The Kinase Knowledgebase extract (Sharma et al. 2016)

Key:
PIK3CB (Human) = PIK3CB (Human) (UniProt P42338); test: Enzyme Assay
PIK3CA (human) [1] = biological target: PIK3CA (human) (UniProt P42336); test: Enzyme Assay
PIK3CD (Human) = PIK3CD (Human) (UniProt O00329); test: Enzyme Assay
PIK3CG (human) = PIK3CG (human) (UniProt P48736); test: Enzyme Assay
PIK3CA (human) [2] = biological target: PIK3CA (human) (UniProt P42336); test: Cell-Based Assay

Sequence of PIK3CB (Human) (P42338 whole entry, looked up): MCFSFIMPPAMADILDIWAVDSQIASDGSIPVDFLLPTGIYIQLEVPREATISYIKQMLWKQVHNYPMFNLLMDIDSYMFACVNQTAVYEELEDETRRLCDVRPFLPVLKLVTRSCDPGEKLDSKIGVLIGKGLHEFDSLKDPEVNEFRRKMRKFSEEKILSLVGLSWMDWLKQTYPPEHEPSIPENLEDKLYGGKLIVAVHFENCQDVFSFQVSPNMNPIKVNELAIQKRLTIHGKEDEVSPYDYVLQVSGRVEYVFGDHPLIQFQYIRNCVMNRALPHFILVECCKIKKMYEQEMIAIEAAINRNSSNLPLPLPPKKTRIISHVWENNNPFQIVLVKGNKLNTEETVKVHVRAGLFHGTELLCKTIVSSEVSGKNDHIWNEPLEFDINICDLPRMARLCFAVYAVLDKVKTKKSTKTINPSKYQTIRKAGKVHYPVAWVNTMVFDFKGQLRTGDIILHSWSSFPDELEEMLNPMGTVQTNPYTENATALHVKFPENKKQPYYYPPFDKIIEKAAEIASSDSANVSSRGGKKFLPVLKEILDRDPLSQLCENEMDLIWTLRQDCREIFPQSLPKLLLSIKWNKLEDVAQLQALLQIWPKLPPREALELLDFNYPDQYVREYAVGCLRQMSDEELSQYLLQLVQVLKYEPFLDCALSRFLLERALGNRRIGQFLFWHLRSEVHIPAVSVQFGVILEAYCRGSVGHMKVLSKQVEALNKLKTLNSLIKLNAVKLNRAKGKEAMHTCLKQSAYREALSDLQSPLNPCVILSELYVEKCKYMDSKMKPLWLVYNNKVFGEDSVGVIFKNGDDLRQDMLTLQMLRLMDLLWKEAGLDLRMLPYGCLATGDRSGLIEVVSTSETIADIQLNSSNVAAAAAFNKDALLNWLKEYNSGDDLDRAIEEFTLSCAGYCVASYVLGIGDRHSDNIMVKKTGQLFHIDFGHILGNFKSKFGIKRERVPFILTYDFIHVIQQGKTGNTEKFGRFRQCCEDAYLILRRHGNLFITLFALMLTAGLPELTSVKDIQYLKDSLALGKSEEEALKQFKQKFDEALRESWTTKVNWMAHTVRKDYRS
Sequence of PIK3CG (human) (P48736 whole entry, looked up): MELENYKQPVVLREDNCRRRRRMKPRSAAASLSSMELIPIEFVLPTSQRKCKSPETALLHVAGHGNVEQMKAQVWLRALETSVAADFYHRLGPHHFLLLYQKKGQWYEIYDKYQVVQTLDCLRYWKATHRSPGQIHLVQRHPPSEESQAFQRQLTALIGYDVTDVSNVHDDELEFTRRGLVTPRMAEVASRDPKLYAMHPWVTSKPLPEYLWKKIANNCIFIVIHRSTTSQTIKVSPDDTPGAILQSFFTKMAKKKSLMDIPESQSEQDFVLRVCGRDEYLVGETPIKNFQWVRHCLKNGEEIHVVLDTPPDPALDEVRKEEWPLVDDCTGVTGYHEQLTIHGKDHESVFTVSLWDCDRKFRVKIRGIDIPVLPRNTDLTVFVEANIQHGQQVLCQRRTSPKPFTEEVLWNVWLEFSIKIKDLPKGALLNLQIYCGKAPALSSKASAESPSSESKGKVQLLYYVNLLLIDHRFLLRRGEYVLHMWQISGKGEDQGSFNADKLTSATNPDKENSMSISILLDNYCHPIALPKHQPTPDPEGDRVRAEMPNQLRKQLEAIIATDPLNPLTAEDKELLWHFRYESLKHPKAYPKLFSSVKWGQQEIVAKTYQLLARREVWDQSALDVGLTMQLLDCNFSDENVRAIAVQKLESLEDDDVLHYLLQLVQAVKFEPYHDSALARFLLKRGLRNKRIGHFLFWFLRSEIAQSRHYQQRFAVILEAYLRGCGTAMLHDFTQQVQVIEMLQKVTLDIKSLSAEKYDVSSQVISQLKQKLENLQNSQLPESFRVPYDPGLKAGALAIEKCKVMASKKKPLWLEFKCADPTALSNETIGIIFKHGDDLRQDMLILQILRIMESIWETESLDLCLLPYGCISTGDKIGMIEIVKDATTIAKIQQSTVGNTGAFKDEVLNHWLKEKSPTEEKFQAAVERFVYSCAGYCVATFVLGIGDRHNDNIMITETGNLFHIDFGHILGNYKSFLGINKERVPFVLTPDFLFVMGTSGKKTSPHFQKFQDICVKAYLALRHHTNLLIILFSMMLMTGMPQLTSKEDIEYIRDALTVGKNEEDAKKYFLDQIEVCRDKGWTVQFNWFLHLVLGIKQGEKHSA
Sequence of PIK3CA (human) (P42336 whole entry, looked up): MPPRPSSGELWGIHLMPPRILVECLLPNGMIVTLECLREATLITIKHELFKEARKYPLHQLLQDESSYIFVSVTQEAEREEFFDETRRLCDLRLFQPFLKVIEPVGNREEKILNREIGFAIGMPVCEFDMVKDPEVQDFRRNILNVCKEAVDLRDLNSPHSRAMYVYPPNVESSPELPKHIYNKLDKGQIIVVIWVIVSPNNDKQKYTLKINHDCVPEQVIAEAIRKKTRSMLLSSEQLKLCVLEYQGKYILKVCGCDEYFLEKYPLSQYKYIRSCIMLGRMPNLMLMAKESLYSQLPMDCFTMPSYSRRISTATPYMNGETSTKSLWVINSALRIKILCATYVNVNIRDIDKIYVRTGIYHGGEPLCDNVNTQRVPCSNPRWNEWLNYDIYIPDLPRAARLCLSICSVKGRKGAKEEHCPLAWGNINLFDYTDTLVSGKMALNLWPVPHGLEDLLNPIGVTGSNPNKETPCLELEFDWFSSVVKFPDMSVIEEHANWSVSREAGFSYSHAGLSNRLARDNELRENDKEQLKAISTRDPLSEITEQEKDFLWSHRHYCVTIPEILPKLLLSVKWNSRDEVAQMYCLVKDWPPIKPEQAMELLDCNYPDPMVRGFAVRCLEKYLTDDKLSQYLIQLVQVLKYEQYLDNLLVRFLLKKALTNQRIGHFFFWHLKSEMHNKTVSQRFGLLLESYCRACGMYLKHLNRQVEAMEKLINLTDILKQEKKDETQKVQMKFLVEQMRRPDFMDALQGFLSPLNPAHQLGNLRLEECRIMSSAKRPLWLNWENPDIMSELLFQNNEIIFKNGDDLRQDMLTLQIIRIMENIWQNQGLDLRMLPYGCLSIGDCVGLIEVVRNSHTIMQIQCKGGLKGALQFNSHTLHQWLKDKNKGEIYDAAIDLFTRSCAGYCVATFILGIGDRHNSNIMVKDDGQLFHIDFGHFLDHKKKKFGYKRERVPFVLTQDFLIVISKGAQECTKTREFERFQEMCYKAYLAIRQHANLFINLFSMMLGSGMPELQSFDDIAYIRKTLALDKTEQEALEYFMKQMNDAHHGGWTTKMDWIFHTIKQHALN
Sequence of PIK3CD (Human) (O00329 whole entry, looked up): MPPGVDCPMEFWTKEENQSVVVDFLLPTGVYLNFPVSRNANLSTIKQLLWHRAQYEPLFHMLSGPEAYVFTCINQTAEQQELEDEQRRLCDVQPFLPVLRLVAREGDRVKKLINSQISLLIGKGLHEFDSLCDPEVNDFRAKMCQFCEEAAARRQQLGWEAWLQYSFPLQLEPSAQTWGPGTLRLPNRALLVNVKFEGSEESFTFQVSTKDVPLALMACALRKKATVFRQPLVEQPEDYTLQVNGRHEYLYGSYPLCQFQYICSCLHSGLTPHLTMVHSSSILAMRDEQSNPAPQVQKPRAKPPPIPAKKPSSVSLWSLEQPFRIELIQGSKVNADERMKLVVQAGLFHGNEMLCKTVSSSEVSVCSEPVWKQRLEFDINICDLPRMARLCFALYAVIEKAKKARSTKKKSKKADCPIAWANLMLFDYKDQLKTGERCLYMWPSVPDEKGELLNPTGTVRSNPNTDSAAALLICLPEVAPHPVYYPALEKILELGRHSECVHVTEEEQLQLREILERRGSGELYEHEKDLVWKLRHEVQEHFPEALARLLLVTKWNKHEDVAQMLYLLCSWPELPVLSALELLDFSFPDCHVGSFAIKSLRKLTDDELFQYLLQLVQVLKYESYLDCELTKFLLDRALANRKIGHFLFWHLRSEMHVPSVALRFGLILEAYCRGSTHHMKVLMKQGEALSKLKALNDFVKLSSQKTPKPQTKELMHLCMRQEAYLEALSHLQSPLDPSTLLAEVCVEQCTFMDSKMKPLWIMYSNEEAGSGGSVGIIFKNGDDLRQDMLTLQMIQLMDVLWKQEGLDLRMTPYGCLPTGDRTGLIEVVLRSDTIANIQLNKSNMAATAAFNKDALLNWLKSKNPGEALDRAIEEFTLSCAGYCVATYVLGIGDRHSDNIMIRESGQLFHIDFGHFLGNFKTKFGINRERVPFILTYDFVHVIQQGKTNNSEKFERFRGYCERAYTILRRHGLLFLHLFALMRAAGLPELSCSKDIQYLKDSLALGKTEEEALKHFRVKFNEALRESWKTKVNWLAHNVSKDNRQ

IC50 (PIK3CA (human) [1])	IC50 (PIK3CD (Human))	IC50 (PIK3CG (human))	IC50 (PIK3CA (human) [2]; t47d)	SMILES	other results
< 100 nM	> 10000 nM	–	–	C[C@H]1CN(c2cnc3ccc(-c4ccc5oc(N)nc5c4)cc3c2)CCN1	IC50 (PIK3CB (Human)): < 100 nM
100 to 1000 nM	> 10000 nM	> 10000 nM	–	CN1CCN(n2cnc3ccc(-c4ccc5oc(N)nc5c4)cc3c2=O)CC1	IC50 (PIK3CB (Human)): > 10000 nM
100 to 1000 nM	> 10000 nM	> 10000 nM	–	CC1CN(C(=O)c2cnc3ccc(-c4ccc5oc(N)nc5c4)cn23)CCN1 (stereo not given)	IC50 (PIK3CB (Human)): 100 to 1000 nM
100 to 1000 nM	> 10000 nM	> 10000 nM	–	CS(=O)(=O)N1CCC(n2cnc3ccc(-c4ccc5oc(N)nc5c4)cc3c2=O)CC1	–
< 100 nM	> 10000 nM	< 100 nM	100 to 1000 nM	NC(=O)[C@H]1CCCN1c1cnc2ccc(-c3ccc4oc(N)nc4c3)cc2n1	IC50 (PIK3CB (Human)): < 100 nM
–	–	< 100 nM	–	C[C@H]1CN(c2cnc3ccc(-c4cccc5c(N)nsc45)cc3n2)CCN1	–
100 to 1000 nM	–	–	–	Nc1nc2cc(-c3ccc4ncc(C(=O)N5CCC(N6CCC(F)(F)C6)C5)n4c3)ccc2o1 (stereo not given)	IC50 (PIK3CB (Human)): > 10000 nM
< 100 nM	100 to 1000 nM	100 to 1000 nM	–	Nc1nc2cc(-c3ccc4ncc(NCCN5CCOCC5)nc4c3)ccc2o1	IC50 (PIK3CB (Human)): 100 to 1000 nM
< 100 nM	< 100 nM	< 100 nM	100 to 1000 nM	CC(=O)Nc1nc2ccc(-c3ccc4oc(N)nc4c3)cc2s1	IC50 (PIK3CB (Human)): 100 to 1000 nM
–	–	–	100 to 1000 nM	Nc1nc2cc(-c3ccc4ncc(N5CCN(C(=O)CN6CCCC6)CC5)nc4c3)ccc2o1	–
–	–	–	100 to 1000 nM	Nc1nc2cc(-c3ccc4ncc(NC5CCOCC5)nc4c3)ccc2o1	–
< 100 nM	< 100 nM	100 to 1000 nM	–	CC1(C)CN(C2CN(C(=O)c3cnc4ccc(-c5ccc6oc(N)nc6c5)cn34)C2)CCN1	IC50 (PIK3CA (human) [2]; pc3): 100 to 1000 nM
–	–	–	100 to 1000 nM	Nc1nc2cc(-c3ccc4ncc(N5CC(C(=O)N6CCOCC6)C5)nc4c3)ccc2o1	–
–	–	–	100 to 1000 nM	Nc1nc2cc(-c3ccc4ncc(N5CC(N6CCOCC6)C5)nc4c3)ccc2o1	–
–	–	–	100 to 1000 nM	CN1CCN(C2CN(c3cnc4ccc(-c5ccc6oc(N)nc6c5)cc4n3)C2)CC1	–
–	–	–	100 to 1000 nM	Nc1nc2cc(-c3ccc4ncc(N5CCN(C(=O)C6(N)CCC6)CC5)nc4c3)ccc2o1	–
–	–	–	100 to 1000 nM	CS(=O)(=O)CCN1CCN(c2cnc3ccc(-c4ccc5oc(N)nc5c4)cc3n2)CC1	–
–	–	–	> 10000 nM	Cc1cn(-c2cnc3ccc(-c4ccc5oc(N)nc5c4)cc3n2)cn1	–
–	–	100 to 1000 nM	100 to 1000 nM	Nc1nc2cc(-c3ccc4ncc(C(=O)N5CCC(O)C5)n4c3)ccc2o1 (stereo not given)	–
–	–	–	100 to 1000 nM	Cc1nccn1C1CN(c2cnc3ccc(-c4ccc5oc(N)nc5c4)cc3n2)C1	–
< 100 nM	100 to 1000 nM	100 to 1000 nM	100 to 1000 nM	CN(C)CC(=O)N1CCN(c2cnc3ccc(-c4ccc5oc(N)nc5c4)cc3n2)CC1	IC50 (PIK3CB (Human)): 100 to 1000 nM
–	–	–	100 to 1000 nM	Nc1nc2cc(-c3ccc4ncc(C(=O)N5CC[C@H](O)C5)n4c3)ccc2o1	–
< 100 nM	< 100 nM	< 100 nM	–	Nc1nc2cc(-c3ccc4ncc(N[C@H]5CC[C@H](O)CC5)nc4c3)ccc2o1	–
–	–	–	100 to 1000 nM	CC(C)[C@@H](N)C(=O)N1CCN(c2cnc3ccc(-c4ccc5oc(N)nc5c4)cc3n2)CC1	–
–	–	–	100 to 1000 nM	CC(=O)N1CCC(N(C)c2ncnc3ccc(-c4ccc5oc(N)nc5c4)cc23)CC1	–
–	–	–	100 to 1000 nM	C[C@@H]1CN(C2CN(c3cnc4ccc(-c5ccc6oc(N)nc6c5)cc4n3)C2)CCN1	–
–	–	–	100 to 1000 nM	Nc1nc2cc(-c3ccc4ncc(N5CC(N6CCN(CCO)CC6)C5)nc4c3)ccc2o1	–
–	–	–	100 to 1000 nM	Nc1nc2cc(-c3ccc4ncc(N5CCC(N6CCOCC6)CC5)nc4c3)ccc2o1	–
–	–	–	100 to 1000 nM	CC(C)N1CCN(C(=O)C2CN(c3cnc4ccc(-c5ccc6oc(N)nc6c5)cc4n3)C2)CC1	–

The remaining lines, values behind:

SMILES	IC50 (PIK3CA (human) [1])	IC50 (PIK3CD (Human))	IC50 (PIK3CG (human))	IC50 (PIK3CA (human) [2]; t47d)	other results
CN1CCN(S(=O)(=O)c2cnc3ccc(-c4ccc5oc(N)nc5c4)cn23)CC1	> 10000 nM	> 10000 nM	> 10000 nM	–	IC50 (PIK3CB (Human)): > 10000 nM
NC1=NC2C=C(c3ccc4oc(N)nc4c3)C=CC2O1 (stereo not given)	100 to 1000 nM	–	< 100 nM	–	–
Nc1nc2ccc(-c3ccc4nccc(-c5ccncc5)c4c3)cc2s1	< 100 nM	100 to 1000 nM	100 to 1000 nM	–	IC50 (PIK3CB (Human)): > 10000 nM
Nc1nc2cc(-c3ccc4ncc(C(=O)N5C6CCC5COC6)n4c3)ccc2o1	100 to 1000 nM	–	< 100 nM	–	IC50 (PIK3CA (human) [2]; pc3): 100 to 1000 nM
Nc1nc2cc(-c3ccc4ncc(-c5ccncc5)n4c3)ccc2o1	< 100 nM	100 to 1000 nM	< 100 nM	100 to 1000 nM	–
CNc1nsc2cc(-c3ccc4ncc(C(=O)N5CCOCC5)n4c3)ccc12	> 10000 nM	> 10000 nM	> 10000 nM	–	IC50 (PIK3CB (Human)): > 10000 nM
CC(=O)Nc1cc2ccc(-c3cc(F)c4oc(N)nc4c3)cn2n1	> 10000 nM	> 10000 nM	–	–	IC50 (PIK3CB (Human)): > 10000 nM
Nc1nc2cc(-c3ccc4ncc(S(=O)(=O)N5CCOCC5)n4c3)ccc2o1	> 10000 nM	> 10000 nM	> 10000 nM	–	IC50 (PIK3CB (Human)): > 10000 nM
COC(=O)N1CCC(N2N=CC3C(N4CCOCC4)=NC(c4ccc5oc(N)nc5c4)=NC32)CC1 (stereo not given)	100 to 1000 nM	> 10000 nM	> 10000 nM	–	–
Nc1nc2ccc(-c3ccc4nccc(-c5ccncc5)c4c3)cc2o1	< 100 nM	< 100 nM	< 100 nM	–	IC50 (PIK3CB (Human)): < 100 nM; IC50 (PIK3CA (human) [2]; pc3): < 100 nM
Nc1nc2cc(-c3ccc4ncc(-c5cn[nH]c5)n4n3)ccc2o1	< 100 nM	100 to 1000 nM	< 100 nM	–	IC50 (PIK3CB (Human)): < 100 nM
Nc1nc2cc(-c3ccc4ncc(C(=O)N[C@H]5CC[C@H](O)CC5)n4c3)ccc2o1	–	–	< 100 nM	–	–
COc1ncc(-c2ccc3ncn(C4CCN(C)CC4)c(=O)c3c2)cc1NS(C)(=O)=O	–	< 100 nM	–	–	–
Nc1nc2cccc(-c3ccc4nccc(-c5ccncc5)c4c3)c2s1	< 100 nM	–	–	–	–
Nc1nc2cc(-c3ccc4nccc(-c5ccncc5)c4c3)ccc2o1	< 100 nM	< 100 nM	< 100 nM	100 to 1000 nM	IC50 (PIK3CA (human) [2]; pc3): 100 to 1000 nM
Nc1nc2cc(-c3ccc4ncn(-c5ccncc5)c4c3)ccc2o1	< 100 nM	–	100 to 1000 nM	–	IC50 (PIK3CA (human) [2]; pc3): > 10000 nM

SMILES	IC50 (PIK3CA (human) [1])	IC50 (PIK3CD (Human))	IC50 (PIK3CG (human))	IC50 (PIK3CA (human) [2]; t47d)	other results
O=C(c1cnc2ccc(-c3cnc(Cl)c(NS(=O)(=O)c4ccc(F)cc4)c3)cn12)N1CCOCC1	–	–	–	–	IC50 (PIK3CA (human) [2]; pc3): 100 to 1000 nM
Nc1nc2cc(-c3ccc4ncc(-c5ccncc5)n4n3)ccc2o1	< 100 nM	–	< 100 nM	100 to 1000 nM	IC50 (PIK3CB (Human)): 100 to 1000 nM; IC50 (PIK3CA (human) [2]; pc3): 100 to 1000 nM
Nc1noc2cc(-c3ccc4nccc(-c5ccncc5)c4c3)ccc12	–	–	–	100 to 1000 nM	–
CC(=O)N1CCC(Nc2ncnc3ccc(-c4ccc5oc(N)nc5c4)nc23)CC1	–	–	–	100 to 1000 nM	–
NC1=NC2C=C(c3ccc4nc(N)oc4c3)C=CC2O1 (stereo not given)	100 to 1000 nM	100 to 1000 nM	< 100 nM	–	–
CN1CCN(C(=O)c2cnn3ccc(-c4ccc5oc(N)nc5c4)cc23)CC1	100 to 1000 nM	> 10000 nM	–	–	–
CS(=O)(=O)N1CCN(Cc2cc3nc(-c4ccc5oc(N)nc5c4)nc(N4CCOCC4)c3s2)CC1	–	–	–	–	IC50 (PIK3CA (human) [2]; pc3): 100 to 1000 nM
O=C(c1cnc2ccc(-c3cnc(Cl)c(NS(=O)(=O)c4cccc(F)c4)c3)cn12)N1CCOCC1	–	–	–	–	IC50 (PIK3CA (human) [2]; pc3): 100 to 1000 nM
Nc1nc2cc(-c3ccc4ncc(N5CC6CCC(C5)O6)nc4n3)ccc2o1	–	–	–	–	IC50 (PIK3CA (human) [2]; mda-mb-361): 100 to 1000 nM
C[C@H]1COCCN1C1CN(c2cnc3ccc(-c4ccc5oc(N)nc5c4)nc3n2)C1	–	–	–	–	IC50 (PIK3CA (human) [2]; mda-mb-361): > 10000 nM
CCOC(=O)N1CCN(c2cnc3ccc(-c4ccc5oc(N)nc5c4)nc3n2)CC1	–	–	–	–	IC50 (PIK3CA (human) [2]; mda-mb-361): 100 to 1000 nM
Nc1nc2cc(-c3ccc4ncc(C(=O)NCCO)n4c3)ccc2o1	–	–	–	100 to 1000 nM	–
Nc1nc2cc(-c3ccc4ncc(-c5cccnc5)cc4n3)ccc2o1	–	–	–	–	IC50 (PIK3CA (human) [2]; mda-mb-361): > 10000 nM
CS(=O)(=O)N1CCN(C(=O)c2cnc3ccc(-c4ccc5oc(N)nc5c4)cn23)CC1	–	–	–	100 to 1000 nM	–
NCC(=O)N1CCN(c2cnc3ccc(-c4ccc5oc(N)nc5c4)nc3n2)CC1	–	–	–	–	IC50 (PIK3CA (human) [2]; mda-mb-361): > 10000 nM
Nc1nc2cc(-c3ccc4ncc(C(=O)NC5CC5)n4c3)ccc2o1	–	–	–	100 to 1000 nM	–
